# The supplement of paper PMC10307832
# Experiments:
# Experiment in all cases: relative viability (nuclei count vs DMSO), 5 days (fraction); higher = more cells survive
# RERF-LC-KJ = system: RERF-LC-KJ
# Outline: (§1)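 Lung cancer cell lines in 1536-well plates were dosed by pin tool the day after seeding, either with one drug alone or with a fixed anchor-drug dose plus five library-drug doses (not always all listed) in √10 steps. After 5 days, cells were fixed and their nuclei stained in one step (final 0.05% Triton X-100, 1% formaldehyde, 1 ug/ml Hoechst), then counted on 4× images. Relative viability is the nuclei count in treated wells divided by that in vehicle wells. Values are medians of duplicate plates.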
# NCI-H1355 = system: NCI-H1355
# Outline: as §1
# LK-2 = system: LK-2
# Outline: as §1
# NCI-H1563 = system: NCI-H1563
# Outline: as §1
# CAL-12T = system: CAL-12T
# Outline: as §1
# LCLC-97TM1 = system: LCLC-97TM1
# Outline: as §1
# PC-14 = system: PC-14
# Outline: as §1
# EKVX = system: EKVX
# Outline: as §1
# NCI-H2405 = system: NCI-H2405
# Outline: as §1
# NCI-H1650 = system: NCI-H1650
# Outline: as §1
# NCI-H2228 = system: NCI-H2228
# Outline: as §1
# NCI-H661 = system: NCI-H661
# Outline: as §1
# HCC-15 = system: HCC-15
# Outline: as §1
# NCI-H1975 = system: NCI-H1975
# Outline: as §1
# NCI-H520 = system: NCI-H520
# Outline: as §1
# PC-3 [JPC-3] = system: PC-3 [JPC-3]
# Outline: as §1
# NCI-H322M = system: NCI-H322M
# Outline: as §1
# HCC-827 = system: HCC-827
# Outline: as §1
# NCI-H1734 = system: NCI-H1734
# Outline: as §1
# NCI-H1755 = system: NCI-H1755
# Outline: as §1
# H3255 = system: H3255
# Outline: as §1
smiles,measurement,setting,value
CC(=O)O[C@@]12CO[C@@H]1C[C@H](O)[C@@]1(C)C(=O)[C@H](O)C3=C(C)[C@@H](OC(=O)[C@H](O)[C@@H](NC(=O)OC(C)(C)C)c4ccccc4)C[C@@](O)([C@@H](OC(=O)c4ccccc4)[C@H]21)C3(C)C [Docetaxel] + CS(=O)(=O)N1CCN(Cc2cc3nc(-c4cccc5[nH]ncc45)nc(N4CCOCC4)c3s2)CC1 [Pictilisib] (partner 1 µM),relative viability,RERF-LC-KJ; first compound 0.0002 µM,0.525
same,relative viability,RERF-LC-KJ; first compound 0.000632 µM,0.408
same,relative viability,RERF-LC-KJ; first compound 0.002 µM,0.189
same,relative viability,RERF-LC-KJ; first compound 0.006325 µM,0.223
same,relative viability,RERF-LC-KJ; first compound 0.02 µM,0.104
same,relative viability,NCI-H1355; first compound 0.0002 µM,0.479
same,relative viability,NCI-H1355; first compound 0.000632 µM,0.426
same,relative viability,NCI-H1355; first compound 0.002 µM,0.256
same,relative viability,NCI-H1355; first compound 0.006325 µM,0.224
same,relative viability,NCI-H1355; first compound 0.02 µM,0.179
same,relative viability,LK-2; first compound 0.0002 µM,0.496
same,relative viability,LK-2; first compound 0.000632 µM,0.404
same,relative viability,LK-2; first compound 0.002 µM,0.216
same,relative viability,LK-2; first compound 0.006325 µM,0.25
same,relative viability,LK-2; first compound 0.02 µM,0.203
same,relative viability,NCI-H1563; first compound 0.0002 µM,0.662
same,relative viability,NCI-H1563; first compound 0.000632 µM,0.683
same,relative viability,NCI-H1563; first compound 0.002 µM,0.71
same,relative viability,NCI-H1563; first compound 0.006325 µM,0.564
same,relative viability,NCI-H1563; first compound 0.02 µM,0.506
same,relative viability,CAL-12T; first compound 0.0002 µM,0.53
same,relative viability,CAL-12T; first compound 0.000632 µM,0.271
same,relative viability,CAL-12T; first compound 0.002 µM,0.268
same,relative viability,CAL-12T; first compound 0.006325 µM,0.24
same,relative viability,CAL-12T; first compound 0.02 µM,0.171
same,relative viability,LCLC-97TM1; first compound 0.000632 µM,0.206
same,relative viability,LCLC-97TM1; first compound 0.002 µM,0.113
same,relative viability,LCLC-97TM1; first compound 0.006325 µM,0.112
same,relative viability,LCLC-97TM1; first compound 0.02 µM,0.102
same,relative viability,PC-14; first compound 0.0002 µM,0.629
same,relative viability,PC-14; first compound 0.000632 µM,0.376
same,relative viability,PC-14; first compound 0.002 µM,0.0774
same,relative viability,PC-14; first compound 0.006325 µM,0.0423
same,relative viability,PC-14; first compound 0.02 µM,0.0293
same,relative viability,EKVX; first compound 0.0002 µM,0.447
same,relative viability,EKVX; first compound 0.000632 µM,0.45
same,relative viability,EKVX; first compound 0.002 µM,0.26
same,relative viability,EKVX; first compound 0.006325 µM,0.187
same,relative viability,EKVX; first compound 0.02 µM,0.119
same,relative viability,NCI-H2405; first compound 0.0002 µM,0.393
same,relative viability,NCI-H2405; first compound 0.000632 µM,0.429
same,relative viability,NCI-H2405; first compound 0.002 µM,0.39
same,relative viability,NCI-H2405; first compound 0.006325 µM,0.272
same,relative viability,NCI-H2405; first compound 0.02 µM,0.182
same,relative viability,NCI-H1650; first compound 0.0002 µM,0.431
same,relative viability,NCI-H1650; first compound 0.000632 µM,0.289
same,relative viability,NCI-H1650; first compound 0.002 µM,0.241
same,relative viability,NCI-H1650; first compound 0.006325 µM,0.146
same,relative viability,NCI-H1650; first compound 0.02 µM,0.13
same,relative viability,NCI-H2228; first compound 0.0002 µM,0.291
same,relative viability,NCI-H2228; first compound 0.000632 µM,0.153
same,relative viability,NCI-H2228; first compound 0.002 µM,0.138
same,relative viability,NCI-H2228; first compound 0.006325 µM,0.18
same,relative viability,NCI-H2228; first compound 0.02 µM,0.131
same,relative viability,NCI-H661; first compound 0.0002 µM,0.356
same,relative viability,NCI-H661; first compound 0.000632 µM,0.387
same,relative viability,NCI-H661; first compound 0.002 µM,0.341
same,relative viability,NCI-H661; first compound 0.006325 µM,0.296
same,relative viability,NCI-H661; first compound 0.02 µM,0.278
same,relative viability,HCC-15; first compound 0.0002 µM,0.679
same,relative viability,HCC-15; first compound 0.000632 µM,0.491
same,relative viability,HCC-15; first compound 0.002 µM,0.226
same,relative viability,NCI-H1975; first compound 0.0002 µM,0.3
same,relative viability,NCI-H1975; first compound 0.000632 µM,0.261
same,relative viability,NCI-H1975; first compound 0.002 µM,0.213
same,relative viability,NCI-H1975; first compound 0.006325 µM,0.156
same,relative viability,NCI-H1975; first compound 0.02 µM,0.121
same,relative viability,NCI-H520; first compound 0.0002 µM,0.274
same,relative viability,NCI-H520; first compound 0.000632 µM,0.27
same,relative viability,NCI-H520; first compound 0.002 µM,0.239
same,relative viability,NCI-H520; first compound 0.006325 µM,0.231
same,relative viability,NCI-H520; first compound 0.02 µM,0.157
same,relative viability,PC-3 [JPC-3]; first compound 0.0002 µM,0.693
same,relative viability,PC-3 [JPC-3]; first compound 0.000632 µM,0.715
same,relative viability,PC-3 [JPC-3]; first compound 0.002 µM,0.454
same,relative viability,PC-3 [JPC-3]; first compound 0.006325 µM,0.329
same,relative viability,PC-3 [JPC-3]; first compound 0.02 µM,0.229
same,relative viability,NCI-H322M; first compound 0.0002 µM,0.433
same,relative viability,NCI-H322M; first compound 0.000632 µM,0.493
same,relative viability,NCI-H322M; first compound 0.002 µM,0.492
same,relative viability,NCI-H322M; first compound 0.006325 µM,0.381
same,relative viability,NCI-H322M; first compound 0.02 µM,0.313
same,relative viability,HCC-827; first compound 0.0002 µM,0.904
same,relative viability,HCC-827; first compound 0.000632 µM,1.08
same,relative viability,HCC-827; first compound 0.002 µM,0.787
same,relative viability,HCC-827; first compound 0.006325 µM,0.466
same,relative viability,HCC-827; first compound 0.02 µM,0.363
same,relative viability,NCI-H1734; first compound 0.0002 µM,0.462
same,relative viability,NCI-H1734; first compound 0.000632 µM,0.387
same,relative viability,NCI-H1734; first compound 0.002 µM,0.347
same,relative viability,NCI-H1734; first compound 0.006325 µM,0.335
same,relative viability,NCI-H1734; first compound 0.02 µM,0.213
same,relative viability,NCI-H1755; first compound 0.0002 µM,0.346
same,relative viability,NCI-H1755; first compound 0.000632 µM,0.306
same,relative viability,NCI-H1755; first compound 0.002 µM,0.264
same,relative viability,NCI-H1755; first compound 0.006325 µM,0.249
same,relative viability,NCI-H1755; first compound 0.02 µM,0.183
same,relative viability,H3255; first compound 0.0002 µM,0.395
same,relative viability,H3255; first compound 0.000632 µM,0.544
same,relative viability,H3255; first compound 0.002 µM,0.272
same,relative viability,H3255; first compound 0.006325 µM,0.21
same,relative viability,H3255; first compound 0.02 µM,0.195
